ChEMBL document CHEMBL4118146, “Design, synthesis and evaluation of substituted piperidine based KCNQ openers as novel antiepileptic agents” (Bioorg Med Chem Lett, 2018)

How the values were obtained:
[1] = molecular target: T1, Potassium voltage-gated channel subfamily KQT member 2 (Homo sapiens, UniProt O43526); assay: Activation of KCNQ2 (unknown origin) expressed in CHO cells at 10 uM incubated for 20 mins in dark measured every 2 secs for 10 secs by fluorescence-based thallium influx assay relative to control; assay type: cell-based
[2] = molecular target: T1, Potassium voltage-gated channel subfamily KQT member 2; assay: Activation of KCNQ2 (unknown origin) expressed in CHO cells at 10 uM incubated for 20 mins in dark measured every 2 secs for 10 secs by fluorescence-based thallium influx assay relative to retigabine; assay type: cell-based
[3] = Cmax in Sprague-Dawley rat at 1 mg/kg, iv measured over 24 hrs by LC/MS/MS method; assay type: ADME, organism-based; design: dose 1 mg/kg, route intravenous; details: in vivo
[4] = Clearance in Sprague-Dawley rat at 1 mg/kg, iv measured over 24 hrs by LC/MS/MS method; assay type: ADME, organism-based; details: in vivo
[5] = Half life in Sprague-Dawley rat at 1 mg/kg, iv measured over 24 hrs by LC/MS/MS method; assay type: ADME, organism-based; details: in vivo
[6] = MRTlast in Sprague-Dawley rat at 1 mg/kg, iv measured over 24 hrs by LC/MS/MS method; assay type: ADME, organism-based; details: in vivo
[7] = AUClast in Sprague-Dawley rat at 1 mg/kg, iv measured over 24 hrs by LC/MS/MS method; assay type: ADME, organism-based; design: dose 1 mg/kg, time 0 - last, route intravenous; details: in vivo
[8] = Apparent volume of distribution in Sprague-Dawley rat at 1 mg/kg, iv measured over 24 hrs by LC/MS/MS method; assay type: ADME, organism-based; details: in vivo, read-out: Vd(app)
[9] = Tmax in Sprague-Dawley rat at 1 mg/kg, iv measured over 24 hrs by LC/MS/MS method; assay type: ADME, organism-based; details: in vivo
[10] = molecular target: T1, Potassium voltage-gated channel subfamily KQT member 2; assay: Activation of KCNQ2 (unknown origin) expressed in CHO cells at 10 uM after 10 mins by atomic absorption spectrophotometry-based Rb+ flow assay; assay type: cell-based
[11] = molecular target: T1, Potassium voltage-gated channel subfamily KQT member 2; assay: Activation of KCNQ2 (unknown origin) expressed in CHO cells assessed as conductivity (I/I0) at 10 uM by electrophysiological patch-clamp test; assay type: cell-based
[12] = molecular target: T1, Potassium voltage-gated channel subfamily KQT member 2; assay: Activation of KCNQ2 (unknown origin) expressed in CHO cells assessed as half-maximum activation voltage left shift at 10 uM by electrophysiological patch-clamp test; assay type: cell-based

T1 sequence (O43526 whole entry): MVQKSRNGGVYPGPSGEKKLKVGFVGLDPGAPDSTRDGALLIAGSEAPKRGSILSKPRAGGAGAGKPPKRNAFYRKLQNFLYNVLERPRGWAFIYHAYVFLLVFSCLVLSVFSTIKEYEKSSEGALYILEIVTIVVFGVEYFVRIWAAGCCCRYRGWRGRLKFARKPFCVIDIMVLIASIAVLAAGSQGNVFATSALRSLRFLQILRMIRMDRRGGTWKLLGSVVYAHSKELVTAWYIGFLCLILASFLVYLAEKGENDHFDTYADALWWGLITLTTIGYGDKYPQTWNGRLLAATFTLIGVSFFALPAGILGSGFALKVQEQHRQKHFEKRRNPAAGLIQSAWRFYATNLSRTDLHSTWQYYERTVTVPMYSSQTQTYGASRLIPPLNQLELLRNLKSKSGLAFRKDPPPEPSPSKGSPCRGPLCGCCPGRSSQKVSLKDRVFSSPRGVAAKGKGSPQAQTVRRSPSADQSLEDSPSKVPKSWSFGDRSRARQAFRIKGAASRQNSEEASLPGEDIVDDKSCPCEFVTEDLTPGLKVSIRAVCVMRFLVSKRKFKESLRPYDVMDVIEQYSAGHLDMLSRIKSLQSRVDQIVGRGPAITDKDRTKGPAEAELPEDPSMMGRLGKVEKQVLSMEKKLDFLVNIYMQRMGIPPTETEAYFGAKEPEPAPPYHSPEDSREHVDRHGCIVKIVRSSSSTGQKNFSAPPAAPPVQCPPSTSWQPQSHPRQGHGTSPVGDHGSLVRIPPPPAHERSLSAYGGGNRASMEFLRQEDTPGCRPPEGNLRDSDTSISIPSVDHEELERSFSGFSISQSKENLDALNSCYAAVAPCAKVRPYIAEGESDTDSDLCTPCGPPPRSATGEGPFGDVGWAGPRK

`Cc1cc(N2CCC(N3CCOCC3)CC2)cc(C)c1NC(=O)CC(C)(C)C` gave an Activity [1] of 1.13%.
`Cc1cc(N2CCC(N3CCCCC3)CC2)cc(C)c1NC(=O)CC(C)(C)C` showed an Activity [1] of 0.02%.
Work on `Cc1cc(N2CCC(c3cccc(Cl)c3)CC2)cc(C)c1NC(=O)CC(C)(C)C` yielded a fold change (FC) [2] of 3.7 to 42 and an Activity [1] of 168%.
Molecule `Cc1cc(N2CCC(c3ccccc3)CC2)cc(C)c1NC(=O)CC(C)(C)C` has an Activity [1] of 0.63%.
For `Cc1cc(N2CCC(c3cccc(F)c3)CC2)cc(C)c1NC(=O)CC(C)(C)C`, the Cmax [3] was 9110 ng/mL, the clearance [4] was 2 mL/min/kg and the half-life [5] was 1.38 h. For the same molecule, the MRT last at 24 h [6] was 2.61 h, the AUC(0-t) at 24 h [7] was 8360 ng·h/mL and the Vd [8] was 0.24 L/kg. It also gave a Tmax [9] of 1.8 min, a fold change (FC) [2] of 3.7 to 42 and an Activity [1] of 152%. The EC50 [10] was 220 nM and the Efficacy [10] was 180%.
Molecule `Cc1cc(N2CCC(c3ccncc3)CC2)cc(C)c1NC(=O)CC(C)(C)C` has an Activity [1] of 29.7%.
In the case of `Cc1cc(N2CCC(=O)CC2)cc(C)c1NC(=O)CC(C)(C)C`, the Activity [1] is reported as 110%, the EC50 [10] is reported as 130 nM and the Efficacy [10] is reported as 148%.
`Cc1cc(N2CCCCC2)cc(C)c1NC(=O)CC(C)(C)C` showed an Activity [1] of 69.8%.
Molecule `CCOC(=O)Nc1ccc(NCc2ccc(F)cc2)cc1N` [EZOGABINE] has a Ratio [11] of 2.12, an Activity [12] of 40 mV and an Activity [1] of 40.2%. For the same molecule, the EC50 [10] was 350 nM and the Efficacy [10] was 210%.
Work on `Cc1cc(CN2CCc3ccccc3C2)cc(C)c1NC(=O)CC(C)(C)C` yielded an Activity [1] of 5.11%.
`Cc1cc(N2CCN(c3ccccn3)CC2)cc(C)c1NC(=O)CC(C)(C)C` showed an Activity [1] of 0.28%.
`Cc1cc(CN2CCCc3ccccc32)cc(C)c1NC(=O)CC(C)(C)C` showed a Ratio [11] of 2.76, an Activity [12] of 13.3 mV and a fold change (FC) [2] of 3.5. The Activity [1] was 139%, the EC50 [10] was 330 nM and the Efficacy [10] was 160%.
With `Cc1cc(N2CCC(c3ccc(C(F)(F)F)cc3)CC2)cc(C)c1NC(=O)CC(C)(C)C` the Activity [1] was 41.2%.
With `Cc1cc(N2CCN(c3ccc(C(F)(F)F)cc3)CC2)cc(C)c1NC(=O)CC(C)(C)C` the Activity [1] was 88.3%.
In the case of `Cc1cc(N2CCC(c3ccccc3F)CC2)cc(C)c1NC(=O)CC(C)(C)C`, the Activity [1] is reported as 44%.
Work on `Cc1cc(N2CCC(c3ccc(Cl)cc3)CC2)cc(C)c1NC(=O)CC(C)(C)C` yielded an Activity [1] of 88.3%.
For `Cc1cc(N2CCC(c3cccc(C(F)(F)F)c3)CC2)cc(C)c1NC(=O)CC(C)(C)C`, the fold change (FC) [2] was 3.7 to 42 and the Activity [1] was 149%.
`Cc1cc(CN2CCCCC2)cc(C)c1NC(=O)CC(C)(C)C` gave an Activity [1] of 10.3%.
`Cc1cc(N2CCC(C)(C)CC2)cc(C)c1NC(=O)CC(C)(C)C` showed a Ratio [11] of 1.53, an Activity [12] of 25 mV and an Activity [1] of 100%. For the same molecule, the EC50 [10] was 1580 nM and the Efficacy [10] was 210%.
`Cc1cc(N2CCC(c3cccnc3)CC2)cc(C)c1NC(=O)CC(C)(C)C` showed an Activity [1] of 42.6%.
`Cc1cc(N2CCN(c3cccc(C(F)(F)F)c3)CC2)cc(C)c1NC(=O)CC(C)(C)C` gave an Activity [1] of 52.1%.
In the case of `Cc1cc(C2CCCCN2)cc(C)c1NC(=O)CC(C)(C)C` (stereo not given), the Activity [1] is reported as 0.83%.
`Cc1cc(N2CCC(c3ccccc3C(F)(F)F)CC2)cc(C)c1NC(=O)CC(C)(C)C` gave an Activity [1] of -47.2%.
